Measurements taken from patent US9932331B2, “Phenyl tetrahydroisoquinoline compound substituted with heteroaryl” (TAISHO PHARMACEUTICAL CO., LTD, priority 2014, dated 2018).
Structures can show the parent of a compound that is named as a salt.

Target: T1, human NHE3 (Homo sapiens, UniProt P48764)
T1 sequence (P48764 26-834): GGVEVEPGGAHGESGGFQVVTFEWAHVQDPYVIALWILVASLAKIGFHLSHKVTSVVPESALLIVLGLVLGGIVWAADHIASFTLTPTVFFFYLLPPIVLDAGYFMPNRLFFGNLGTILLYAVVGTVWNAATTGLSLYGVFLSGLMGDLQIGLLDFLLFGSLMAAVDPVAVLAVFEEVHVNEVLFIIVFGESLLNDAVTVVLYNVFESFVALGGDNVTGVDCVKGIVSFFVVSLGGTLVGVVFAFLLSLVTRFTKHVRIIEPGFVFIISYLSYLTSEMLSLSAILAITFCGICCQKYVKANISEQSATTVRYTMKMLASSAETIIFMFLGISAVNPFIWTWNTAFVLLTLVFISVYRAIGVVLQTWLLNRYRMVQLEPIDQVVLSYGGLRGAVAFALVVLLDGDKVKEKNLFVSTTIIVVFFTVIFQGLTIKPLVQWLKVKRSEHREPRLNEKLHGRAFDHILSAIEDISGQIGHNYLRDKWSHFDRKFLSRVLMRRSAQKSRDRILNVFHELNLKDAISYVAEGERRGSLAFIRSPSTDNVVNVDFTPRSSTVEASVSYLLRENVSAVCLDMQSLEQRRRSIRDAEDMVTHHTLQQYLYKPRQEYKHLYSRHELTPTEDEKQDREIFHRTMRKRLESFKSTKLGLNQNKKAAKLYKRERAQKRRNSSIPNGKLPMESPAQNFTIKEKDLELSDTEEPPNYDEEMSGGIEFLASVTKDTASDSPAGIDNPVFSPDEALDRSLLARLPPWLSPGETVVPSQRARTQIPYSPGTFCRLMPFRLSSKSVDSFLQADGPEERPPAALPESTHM
Assay: NHE3 inhibition test (recovery of intracellular pH in cell line stably expressing human NHE3)
Assay type: cell-based
Conditions: OK cells deficient in endogenous NHE stably expressing human NHE3; BCECF fluorescence, initial rate of pH recovery; read-out: human NHE3 inhibitory activity IC50
Experimental: (1) Preparation of Cell Line Deficient in Endogenous NHE
The cell line deficient in endogenous NHE was prepared according to the method of Jacques Pouyssegur et al. (Proc. Natl. Acad. Sci. USA. 1984, Vol. 81, 4833-4837) using opossum kidney (OK) cells (ATCC).
(2) Preparation of Expression Plasmid and Cell Line Stably Expressing Human NHE3
The expression plasmid was constructed by inserting a human NHE3 (SLC9A3, Accession No. NM_004174) cDNA sequence (GeneCopoeia, Inc.) into a pcDNA3.2/V5-DEST vector (Life Technologies Corp.).
The OK cells deficient in endogenous NHE were transfected with the constructed human NHE3 expression plasmid to prepare stably expressing cells. The transfection was carried out by electroporation using a Nucleofector 2b device (Lonza Group Ltd.). A stably expressing cell line was selected in medium supplemented with 500 μg/mL Geneticin (Life Technologies Corp.) and isolated.
NHE3 activity measurement method using cell: The activity was determined by using the NHE3-mediated recovery of intracellular pH occurring after intracellular acidification, as an index. The intracellular pH was measured by a partial modification of the pH-sensitive fluorescent indicator method reported by Tsien et al. (Proc. Natl. Acad. Sci. USA., 1984, 81, 7436-7440).
The cell line stably expressing human NHE3 was inoculated on a poly-D-lysine-coated 96-well plate (Greiner Bio-one) and cultured overnight. […] Then, Hank's balanced salt buffer solution containing 0.25 μM BCECF-AM (Dojindo Laboratories) was added to the cells, which were then incubated at 37° C. for 30 minutes. […] The cells thus incubated in the NH4Cl buffer solution were washed with NH4Cl-free buffer solution (133.8 mM choline chloride, […], 5 mM glucose, 4.7 mM KCl, 1.25 mM CaCl2, 1.25 mM MgCl2, 0.97 mM K2HPO4, 0.23 mM KH2PO4, pH 7.4) to decrease the intracellular pH. After the washing step, 70 μL of a test compound solution prepared with the NH4Cl-free buffer solution was added to the cells, and 70 iμL of sodium ion-containing buffer solution (133.8 mM NaCl, 10 mM HEPES, 5 mM glucose, 4.7 mM KCl, 1.25 mM CaCl2, 1.25 mM MgCl2, 0.97 mM Na2HPO4, 0.23 mM NaH2PO4, pH 7.4) was added thereto in a measurement system FDSS6000 (Hamamatsu Photonics K.K.) to start the recovery of pH. The recovery of intracellular pH was monitored using BCECF fluorescence (excitation wavelength: 480 nm, fluorescence wavelength: 520 to 560 nm), and the initial rate of the pH recovery was plotted. The recovery of pH without test compound was defined as the maximum recovery, and the test compound concentration necessary to inhibit 50% of the maximum recovery was calculated as an IC50 value.

**Q.** How did the IC50 turn out when “1,3-Bis[14-(4-{3-[(4S)-6,8-dichloro-2-methyl-1,2,3,4-tetrahydroisoquinolin-4-yl]phenyl}-1H-1,2,3-triazol-1-yl)-3,6,9,12-tetraoxatetradec-1-yl]urea hydrochloride [Example 7-44]” was run?
**A.** Its IC50 is 7.6 nM.

**Q.** How did the IC50 turn out when CN1Cc2c(Cl)cc(Cl)cc2[C@H](c2cccc(-c3ccncc3)c2)C1 [Example 1-1, (4S)-6,8-Dichloro-2-methyl-4-[3-(pyridin-4-yl)phenyl]-1,2,3,4-tetrahydroisoquinoline] was run?
**A.** The IC50 was 217 nM.

**Q.** How did the IC50 turn out when CN1Cc2c(Cl)cc(Cl)cc2[C@H](c2cccc(-c3cccnc3)c2)C1 [Example 1-2, (4S)-6,8-Dichloro-2-methyl-4-[3-(pyridin-3-yl)phenyl]-1,2,3,4-tetrahydroisoquinoline trifluoroacetate] was run?
**A.** The IC50 was 217 nM.

**Q.** CN1Cc2c(Cl)cc(Cl)cc2[C@H](c2cccc(-c3ccn[nH]3)c2)C1 [Example 1-3, (4S)-6,8-Dichloro-2-methyl-4-[3-(1H-pyrazol-3-yl)phenyl]-1,2,3,4-tetrahydroisoquinoline] was tested. Which IC50 did it give?
**A.** The IC50 was 392 nM.

**Q.** CN1Cc2c(Cl)cc(Cl)cc2[C@H](c2cccc(-c3cn[nH]c3)c2)C1 [Example 1-4, (4S)-6,8-dichloro-2-methyl-4-[3-(1H-pyrazol-4-yl)phenyl]-1,2,3,4-tetrahydroisoquinoline] was tested. Which IC50 did it give?
**A.** Its IC50 is 257 nM.

**Q.** Cc1cc(-c2cccc([C@@H]3CN(C)Cc4c(Cl)cc(Cl)cc43)c2)cnn1 [Example 1-5, (4S)-6,8-Dichloro-2-methyl-4-[3-(6-methylpyridazin-4-yl)phenyl]-1,2,3,4-tetrahydroisoquinoline trifluoroacetate] was tested. Which IC50 did it give?
**A.** The IC50 was 58.1 nM.

**Q.** CN1Cc2c(Cl)cc(Cl)cc2[C@H](c2cccc(-c3ccccn3)c2)C1 [Example 1-6, (4S)-6,8-Dichloro-2-methyl-4-[3-(pyridin-2-yl)phenyl]-1,2,3,4-tetrahydroisoquinoline trifluoroacetate] was tested. Which IC50 did it give?
**A.** Its IC50 is 373 nM.

**Q.** How did the IC50 turn out when CN1Cc2c(Cl)cc(Cl)cc2[C@H](c2cccc(-c3ccnc(C#N)c3)c2)C1 [Example 1-7, 4-{3-[(4S)-6,8-Dichloro-2-methyl-1,2,3,4-tetrahydroisoquinolin-4-yl]phenyl}pyridine-2-carbonitrile] was run?
**A.** The IC50 was 626 nM.

**Q.** For CN1Cc2c(Cl)cc(Cl)cc2C(c2cccc(-c3cn(C)nn3)c2)C1 (stereo not shown) [Example 1-8, 6,8-Dichloro-2-methyl-4-[3-(1-methyl-1H-1,2,3-triazol-4-yl)phenyl]-1,2,3,4-tetrahydroisoquinoline], which IC50 is on record?
**A.** The IC50 was 126 nM.

**Q.** Which IC50 does the source give for CNc1cc(-c2cccc([C@@H]3CN(C)Cc4c(Cl)cc(Cl)cc43)c2)ccn1 [Example 1-9, 4-{3-[(4S)-6,8-Dichloro-2-methyl-1,2,3,4-tetrahydroisoquinolin-4-yl]phenyl}-N-methylpyridin-2-amine trifluoroacetate] here?
**A.** Its IC50 is 561 nM.

**Q.** With CN1Cc2c(Cl)cc(Cl)cc2[C@H](c2cccc(-c3cncnc3)c2)C1 [Example 1-10, (4S)-6,8-Dichloro-2-methyl-4-[3-(pyrimidin-5-yl)phenyl]-1,2,3,4-tetrahydroisoquinoline trifluoroacetate] as the compound, how does the IC50 read?
**A.** The IC50 was 169 nM.

**Q.** For COc1cc(-c2cccc([C@@H]3CN(C)Cc4c(Cl)cc(Cl)cc43)c2)ccn1 [Example 1-11, (4S)-6,8-Dichloro-4-[3-(2-methoxypyridin-4-yl)phenyl]-2-methyl-1,2,3,4-tetrahydroisoquinoline trifluoroacetate], which IC50 is on record?
**A.** The IC50 was 1600 nM.

**Q.** For CCc1cc(-c2cccc([C@@H]3CN(C)Cc4c(Cl)cc(Cl)cc43)c2)ccn1 [Example 1-12, (4S)-6,8-Dichloro-4-[3-(2-ethylpyridin-4-yl)phenyl]-2-methyl-1,2,3,4-tetrahydroisoquinoline trifluoroacetate], which IC50 is on record?
**A.** Its IC50 is 650 nM.

**Q.** For COc1cc(-c2cccc([C@@H]3CN(C)Cc4c(Cl)cc(Cl)cc43)c2)ncn1 [Example 1-13, (4S)-6,8-Dichloro-4-[3-(6-methoxypyrimidin-4-yl)phenyl]-2-methyl-1,2,3,4-tetrahydroisoquinoline trifluoroacetate], which IC50 is on record?
**A.** The IC50 was 271 nM.

**Q.** With CN1Cc2c(Cl)cc(Cl)cc2[C@H](c2cccc(-c3cnccn3)c2)C1 [Example 1-14, (4S)-6,8-Dichloro-2-methyl-4-[3-(pyrazin-2-yl)phenyl]-1,2,3,4-tetrahydroisoquinoline trifluoroacetate] as the compound, how does the IC50 read?
**A.** The IC50 was 173 nM.

**Q.** CNc1cc(-c2cccc([C@@H]3CN(C)Cc4c(Cl)cc(Cl)cc43)c2)ncn1 [Example 1-15, 6-{3-[(4S)-6,8-Dichloro-2-methyl-1,2,3,4-tetrahydroisoquinolin-4-yl]phenyl}-N-methylpyrimidin-4-amine trifluoroacetate] was tested. Which IC50 did it give?
**A.** Its IC50 is 117 nM.

**Q.** CN1Cc2c(Cl)cc(Cl)cc2[C@H](c2cccc(-c3ncccn3)c2)C1 [Example 1-16, (4S)-6,8-Dichloro-2-methyl-4-[3-(pyrimidin-2-yl)phenyl]-1,2,3,4-tetrahydroisoquinoline trifluoroacetate] was tested. Which IC50 did it give?
**A.** The IC50 was 184 nM.

**Q.** For CN1Cc2c(Cl)cc(Cl)cc2[C@H](c2cccc(-c3ccnnc3)c2)C1 [Example 1-17, (4S)-6,8-Dichloro-2-methyl-4-[3-(pyridazin-4-yl)phenyl]-1,2,3,4-tetrahydroisoquinoline trifluoroacetate], which IC50 is on record?
**A.** Its IC50 is 109 nM.

**Q.** CN1Cc2c(Cl)cc(Cl)cc2[C@H](c2cccc(-c3cn(C)cn3)c2)C1 [Example 1-18, (4S)-6,8-Dichloro-2-methyl-4-[3-(1-methyl-1H-imidazol-4-yl)phenyl]-1,2,3,4-tetrahydroisoquinoline] was tested. Which IC50 did it give?
**A.** The IC50 was 95.7 nM.

**Q.** With Cc1cc(-c2cccc([C@@H]3CN(C)Cc4c(Cl)cc(Cl)cc43)c2)sn1 [Example 1-19, (4S)-6,8-Dichloro-2-methyl-4-[3-(3-methyl-1,2-thiazol-5-yl)phenyl]-1,2,3,4-tetrahydroisoquinoline hydrochloride] as the compound, how does the IC50 read?
**A.** Its IC50 is 856 nM.

**Q.** How did the IC50 turn out when CN1Cc2c(Cl)cc(Cl)cc2[C@H](c2cccc(-c3cccnn3)c2)C1 [Example 1-20, (4S)-6,8-Dichloro-2-methyl-4-[3-(pyridazin-3-yl)phenyl]-1,2,3,4-tetrahydroisoquinoline hydrochloride] was run?
**A.** The IC50 was 208 nM.

**Q.** Which IC50 does the source give for CN1Cc2c(Cl)cc(Cl)cc2[C@H](c2cccc(-c3ccc[nH]3)c2)C1 [Example 1-21, (4S)-6,8-Dichloro-2-methyl-4-[3-(1H-pyrrol-2-yl)phenyl]-1,2,3,4-tetrahydroisoquinoline] here?
**A.** The IC50 was 1170 nM.

**Q.** For CN1Cc2c(Cl)cc(Cl)cc2[C@H](c2cccc(-c3ncco3)c2)C1 [Example 1-22, (4S)-6,8-Dichloro-2-methyl-4-[3-(1,3-oxazol-2-yl)phenyl]-1,2,3,4-tetrahydroisoquinoline hydrochloride], which IC50 is on record?
**A.** The IC50 was 306 nM.

**Q.** Which IC50 does the source give for CN1Cc2c(Cl)cc(Cl)cc2[C@H](c2cccc(-c3ccco3)c2)C1 [Example 1-23, (4S)-6,8-Dichloro-4-[3-(furan-2-yl)phenyl]-2-methyl-1,2,3,4-tetrahydroisoquinoline] here?
**A.** The IC50 was 3220 nM.

**Q.** With CN1Cc2c(Cl)cc(Cl)cc2[C@H](c2cccc(-c3nn[nH]n3)c2)C1 [Example 2-1, (4S)-6,8-dichloro-2-methyl-4-[3-(2H-tetrazol-5-yl)phenyl]-1,2,3,4-tetrahydroisoquinoline] as the compound, how does the IC50 read?
**A.** Its IC50 is 89.3 nM.
